{
  "source": "patent US12459921B2",
  "about": "“Isoindoline compound, preparation method, pharmaceutical composition and use thereof” (SHANGHAI INSTITUTE OF MATERIA MEDICA, CHINESE ACADEMY OF …, priority 2018, dated 2025)",
  "data": [
    {"tested_on": "MM.1S cells", "assay": "Inhibitory effect on the proliferation of MM.1S, MTS cell viability test", "assay_type": "cell-based", "details": "Homo sapiens, MM1.S, 168 h, multiple myeloma MM.1S cells, 7 days incubation, read-out: Tumor cell inhibitory activity", "method_in_brief": "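MM.1S cells (20,000/well, RPMI 1640 with 10% FBS) exposed to 5-fold compound dilutions at 0.2% DMSO for 7 days at 37° C, 5% CO2. MTS added for 3-4 h; OD490-OD690 gave inhibition versus DMSO, IC50 fitted, mean of three experiments.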", "units": {"IC50": "nM"}, "values": [
      {"smiles": "N#CC1(c2ccc(Cl)cc2)CCN(C(=O)CCCOc2cccc3c2CN(C2CCC(=O)NC2=O)C3=O)CC1", "note": "(centres unmarked) [Example 84, 4-(4-chlorophenyl)-1-(4-((2-(2,6-dioxopiperidine-3-)-1-oxoisoindoline-4-)oxy)butyryl)piperidine-4-carbonitrile]", "IC50": "100 to 1000"},
      {"smiles": "N#CC1(c2ccccc2Cl)CCN(C(=O)CCCCOc2cccc3c2CN(C2CCC(=O)NC2=O)C3=O)CC1", "note": "(centres unmarked) [Example 85, 4-(2-chlorophenyl)-1-(5-((2-(2,6-dioxopiperidine-3-)-1-oxoisoindoline-4-)oxy)valeryl)piperidine-4-carbonitrile]", "IC50": "< 100"},
      {"smiles": "N#CC1(c2cccc(Cl)c2)CCN(C(=O)CCCCOc2cccc3c2CN(C2CCC(=O)NC2=O)C3=O)CC1", "note": "(centres unmarked) [Example 87, 4-(3-chlorophenyl)-1-(5-((2-(2,6-dioxopiperidine-3-)-1-oxoisoindoline-4-)oxy)valeryl)piperidine-4-carbonitrile]", "IC50": "< 100"},
      {"smiles": "N#CC1(c2ccccc2OC(F)(F)F)CCN(C(=O)CCCOc2cccc3c2CN(C2CCC(=O)NC2=O)C3=O)CC1", "note": "(centres unmarked) [Example 90, 1-(4-((2-(2,6-dioxopiperidine-3-)-1-oxoisoindoline-4-)-oxy-)butyryl)-4-(2-trifluoromethoxyphenyl)piperidine-4-carbonitrile]", "IC50": "1000 to 20000"},
      {"smiles": "N#CC1(c2ccccc2Cl)CCN(CCCCc2cccc3c2CN(C2CCC(=O)NC2=O)C3=O)CC1", "note": "(centres unmarked) [Example 91, 4-(2-chlorophenyl)-1-(4-(2-(2,6-dioxopiperidine-3-)-1-oxoisoindoline-4-)butyl)piperidine-4-carbonitrile]", "IC50": "< 100"},
      {"smiles": "N#CC1(c2ccccc2Cl)CCN(CCCCCc2cccc3c2CN(C2CCC(=O)NC2=O)C3=O)CC1", "note": "(centres unmarked) [Example 92, 4-(2-chlorophenyl)-1-(5-(2-(2,6-oxopiperidine-3-)-1-oxoisoindoline-4-)pentyl)piperidine-4-carbonitrile]", "IC50": "< 100"},
      {"smiles": "N#CC1(c2cccc(Cl)c2)CCN(CCCCc2cccc3c2CN(C2CCC(=O)NC2=O)C3=O)CC1", "note": "(centres unmarked) [Example 93, 4-(3-chlorophenyl)-1-(4-(2-(2,6-dioxopiperidine-3-)-1-oxoisoindoline-4-)butyl)piperidine-4-carbonitrile]", "IC50": "< 100"},
      {"smiles": "N#CC1(c2cccc(OC(F)(F)F)c2)CCN(CCCCCc2cccc3c2CN(C2CCC(=O)NC2=O)C3=O)CC1", "note": "(centres unmarked) [Example 94, 1-(5-(2-(2,6-dioxopiperidine-3-)-1-oxoisoindoline-4-)pentyl)-4-(3-trifluoromethoxyphenyl) piperidine-4-carbonitrile]", "IC50": "< 100"},
      {"smiles": "N#CC1(c2ccc(Cl)cc2)CCN(CCCCc2cccc3c2CN(C2CCC(=O)NC2=O)C3=O)CC1", "note": "(centres unmarked) [Example 95, 4-(4-chlorophenyl)-1-(4-(2-(2,6-dioxopiperidine-3-)-1-oxoisoindoline-4-)butyl)piperidine-4-carbonitrile]", "IC50": "< 100"},
      {"smiles": "N#CC1(c2ccc(OC(F)(F)F)cc2)CCN(CCCCCc2cccc3c2CN(C2CCC(=O)NC2=O)C3=O)CC1", "note": "(centres unmarked) [Example 96, 1-(5-(2-(2,6-dioxopiperidine-3-)-1-oxoisoindoline-4-)pentyl)-4-(4-trifluoromethoxyphenyl)piperidine-4-carbonitrile]", "IC50": "< 100"},
      {"smiles": "N#CC1(c2cccc(OC(F)(F)F)c2)CCN(CCCCc2cccc3c2CN(C2CCC(=O)NC2=O)C3=O)CC1", "note": "(centres unmarked) [Example 97, 1-(4-(2-(2,6-dioxopiperidine-3-)-1-oxoisoindoline-4-)butyl)-4-(3-trifluoromethoxyphenyl) piperidine-4-carbonitrile]", "IC50": "< 100"},
      {"smiles": "N#CC1(c2ccccc2Cl)CCN(CCCCCCc2cccc3c2CN(C2CCC(=O)NC2=O)C3=O)CC1", "note": "(centres unmarked) [Example 98, 4-(2-chlorophenyl)-1-(6-(2-(2,6-dioxopiperidine-3-)-1-oxoisoindoline-4-)hexyl)piperidine-4-carbonitrile]", "IC50": "< 100"},
      {"smiles": "N#CC1(c2ccc(OC(F)(F)F)cc2)CCN(CCCCc2cccc3c2CN(C2CCC(=O)NC2=O)C3=O)CC1", "note": "(centres unmarked) [Example 99, 1-(4-(2-(2,6-dioxopiperidine-3-)-1-oxoisoindoline-4-)butyl)-4-(4-trifluoromethoxyphenyl)piperidine-4-carbonitrile]", "IC50": "< 100"},
      {"smiles": "N#CC1(c2cccc(Cl)c2)CCN(CCCCCCc2cccc3c2CN(C2CCC(=O)NC2=O)C3=O)CC1", "note": "(centres unmarked) [Example 100, 4-(3-chlorophenyl)-1-(6-(2-(2,6-dioxopiperidine-3-)-1-oxoisoindoline-4-)hexyl)piperidine-4-carbonitrile]", "IC50": "< 100"},
      {"smiles": "N#CC1(c2ccc(Cl)cc2Cl)CCN(CCCCc2cccc3c2CN(C2CCC(=O)NC2=O)C3=O)CC1", "note": "(centres unmarked) [Example 101, 4-(2,4-chlorophenyl)-1-(4-(2-(2,6-dioxopiperidine-3-)-1-oxoisoindoline-4-)butyl)piperidine-4-carbonitrile]", "IC50": "< 100"},
      {"smiles": "N#CC1(c2ccc(Cl)cc2)CCN(CCCCCCc2cccc3c2CN(C2CCC(=O)NC2=O)C3=O)CC1", "note": "(centres unmarked) [Example 102, 4-(4-chlorophenyl)-1-(6-(2-(2,6-dioxopiperidine-3-)-1-oxoisoindoline-4-)hexyl)piperidine-4-carbonitrile]", "IC50": "< 100"},
      {"smiles": "O=C1CCC(N2Cc3c(CCCCCN4CCCc5ccccc54)cccc3C2=O)C(=O)N1", "note": "(centres unmarked) [Example 103, 3-(4-(5-(3,4-dihydroquinoline-1(2H))pentyl)-1-oxoisoindoline-2-)piperidine-2,6-dione]", "IC50": "100 to 1000"},
      {"smiles": "CC1CCc2cc(F)ccc2N1CCCCCc1cccc2c1CN(C1CCC(=O)NC1=O)C2=O", "note": "(centres unmarked) [Example 104, 3-(4-(5-(6-fluoro-2-methyl-3,4-dihydroquinoline-1(2H))pentyl)-1-oxoisoindoline-2-) piperidine-2,6-dione]", "IC50": "100 to 1000"},
      {"smiles": "O=C1CCC(N2Cc3c(CCCCCN4CCOc5ccccc54)cccc3C2=O)C(=O)N1", "note": "(centres unmarked) [Example 105, 3-(4-(5-(2,3-dihydro-4H-benzo[b][1,4]oxazine-4-)pentyl)-1-oxoisoindoline-2-)piperidine-2,6-dione]", "IC50": "100 to 1000"},
      {"smiles": "O=C1CCC(N2Cc3c(CCCCCN4CCCc5cc(Br)ccc54)cccc3C2=O)C(=O)N1", "note": "(centres unmarked) [Example 106, 3-(4-(5-(6-bromo-3,4-dihydroquinoline-1(2H))pentyl)-1-oxoisoindoline-2-)piperidine-2,6-dione]", "IC50": "100 to 1000"},
      {"smiles": "Cc1cc(OCCCCOc2cccc3c2C(=O)N(C2CCC(=O)NC2=O)C3=O)c2ccccc2n1", "note": "(centres unmarked) [Example 108, 2-(2,6-dioxopiperidine-3-)-4-(4-((2-methylquinoline-4-)oxy)butoxy)isoindoline-1,3-dione]", "IC50": "1000 to 20000"},
      {"smiles": "O=C1CCC(N2Cc3c(CCCCCN4CCCc5ccc(Cl)cc54)cccc3C2=O)C(=O)N1", "note": "(centres unmarked) [Example 109, 3-(4-(5-(7-chloro-3,4-dihydroquinoline-1(2H))pentyl)-1-oxoisoindoline-2-)piperidine-2,6-dione]", "IC50": "1000 to 20000"},
      {"smiles": "O=C1CCC(N2Cc3c(CCCCCN4CCOc5cc(Br)ccc54)cccc3C2=O)C(=O)N1", "note": "(centres unmarked) [Example 110, 3-(4-(5-(7-bromo-2,3-dihydro-4H-benzo[b][1,4]oxazine-4-)pentyl)-1-oxoisoindoline-2-)piperidine-2,6-dione]", "IC50": "< 100"},
      {"smiles": "O=C1CCC(N2Cc3c(CCCCCN4CCCCc5ccccc54)cccc3C2=O)C(=O)N1", "note": "(centres unmarked) [Example 111, 3-(1-oxo-4-(5-(2,3,4,5-tetrahydro-TH-benzo[b]azepine-1-)pentyl)isoindoline-2-)piperidine-2,6-dione]", "IC50": "100 to 1000"},
      {"smiles": "O=C1CCC(N2Cc3c(CCCCCN4CCc5cc(Br)ccc54)cccc3C2=O)C(=O)N1", "note": "(centres unmarked) [Example 112]", "IC50": "< 100"},
      {"smiles": "O=C1CCC(N2Cc3c(CCCCCN4CCc5ccccc5C4)cccc3C2=O)C(=O)N1", "note": "(centres unmarked) [Example 113, 3-(4-(5-(3,4-dihydroisoquinoline-2(1H)-)pentyl)-1-oxoisoindoline-2-)piperidine-2,6-dione]", "IC50": "100 to 1000"},
      {"smiles": "O=C1CCC(N2Cc3c(CCCCCN4CCCc5cc(Cl)ccc54)cccc3C2=O)C(=O)N1", "note": "(centres unmarked) [Example 115]", "IC50": "100 to 1000"},
      {"smiles": "O=C1CCC(N2Cc3c(OCCCC(=O)N4CCc5ccccc54)cccc3C2=O)C(=O)N1", "note": "(centres unmarked) [Example 116, 3-(4-(4-(indoline-1-)-4-oxobutoxy)-1-oxoisoindoline-2-)piperidine-2,6-dione]", "IC50": "< 100"},
      {"smiles": "O=C1CCC(N2Cc3c(OCCCC(=O)N4CCCc5ccccc54)cccc3C2=O)C(=O)N1", "note": "(centres unmarked) [Example 117, 3-(4-(4-(3,4-dihydroquinoline-1(2H)-)-4-oxobutoxy)-1-oxoisoindoline-2-)piperidine-2,6-dione]", "IC50": "100 to 1000"},
      {"smiles": "O=C1CCC(N2Cc3c(OCCCCC(=O)N4CCc5ccccc54)cccc3C2=O)C(=O)N1", "note": "(centres unmarked) [Example 118, 3-(4-((5-(indoline-1-)-5-oxopentyl)oxy)-1-oxoisoindoline-2-)piperidine-2,6-dione]", "IC50": "< 100"},
      {"smiles": "O=C1CCC(N2Cc3c(OCCCCC(=O)N4CCCc5ccccc54)cccc3C2=O)C(=O)N1", "note": "(centres unmarked) [Example 119, 3-(4-((5-(3,4-dihydroquinoline-1(2H)-)-5-oxopentyl)oxy)-1-oxoisoindoline-2-)piperidine-2,6-dione]", "IC50": "< 100"},
      {"smiles": "O=C1CCC(N2Cc3c(CCCCCCN4CCC5(CC4)OCc4ccc(Cl)cc45)cccc3C2=O)C(=O)N1", "note": "(centres unmarked) [Example 120, 3-(4-(6-(6-chloro-3H-spiro[isobenzofuran-1,4′-piperidine]-1′-)hexyl)-1-oxoisoindoline-2-)piperidine-2,6-dione]", "IC50": "< 100"},
      {"smiles": "O=C1CCC(N2Cc3c(CCCCCN4CCC5(CC4)C(=O)Nc4ccccc45)cccc3C2=O)C(=O)N1", "note": "(centres unmarked) [Example 121, 3-(1-oxo-4-(5-(2-oxospiro[indoline-3,4′-piperidine]-1′-)pentyl)indoline-2-)piperidine-2,6-dione]", "IC50": "< 100"},
      {"smiles": "O=C1CCC(N2Cc3c(CCCCCN4CCC5(CC4)OCc4ccccc45)cccc3C2=O)C(=O)N1", "note": "(centres unmarked) [Example 123, 3-(4-(5-(3H-spiro[isobenzofuran-1,4′-piperidine]-1′-)pentyl)-1-oxoisoindoline-2-)piperidine-2,6-dione]", "IC50": "< 100"},
      {"smiles": "O=C1CCC(N2Cc3c(OCCCCN4CCC5(CC4)OCc4ccc(Cl)cc45)cccc3C2=O)C(=O)N1", "note": "(centres unmarked) [Example 124, 3-(4-(4-(6-chloro-3H-spiro[isobenzofuran-1,4′-piperidine]-1′-)butoxy)-1-oxoisoindoline-2-)piperidine-2,6-dione]", "IC50": "< 100"}
    ]}
  ]
}
